Tests used:
Type in all cases: biochemical
[1] = molecular target: phosphorylated p-38-alpha kinase (Homo sapiens, UniProt Q16539); assay: P-38 alpha kinase assay P1 (coupled spectrophotometric, 2 h pre-incubation); settings: method P1 (2 h pre-incubation); read-out: P-38 Data
[2] = molecular target: KDR kinase (Homo sapiens, UniProt P35968, DEL940-989/E990V); assay: KDR kinase assay K2 (as K1, 2.1 nM enzyme, 2 h pre-incubation, 1.0 mM ATP); settings: Method K2; read-out: KDR Data (IC50)
Procedure: IC50 values were calculated from a series of percent inhibition values determined at a range of inhibitor concentrations using software routines as implemented in the GraphPad Prism software package.

[3] = molecular target: B-Raf(V599E) kinase (Homo sapiens, UniProt P15056, V600E); assay: B-Raf(V599E) kinase assay B1 (construct 1, MEK1 substrate, coupled spectrophotometric)
B-Raf(V599E) kinase, sequence (P15056 with tags, fused parts or gaps V600E): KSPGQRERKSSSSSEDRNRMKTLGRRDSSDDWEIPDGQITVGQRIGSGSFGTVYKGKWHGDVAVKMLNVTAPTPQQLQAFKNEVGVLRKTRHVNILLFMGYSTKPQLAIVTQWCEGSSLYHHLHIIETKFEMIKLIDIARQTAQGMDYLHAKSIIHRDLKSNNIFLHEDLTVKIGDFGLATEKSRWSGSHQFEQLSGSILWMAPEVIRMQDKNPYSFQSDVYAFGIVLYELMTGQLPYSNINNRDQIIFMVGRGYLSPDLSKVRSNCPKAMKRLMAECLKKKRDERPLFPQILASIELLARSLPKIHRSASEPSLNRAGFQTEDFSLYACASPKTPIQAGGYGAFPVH
Procedure: The test compounds were incubated with the reaction mixtureat 30° C. for 2 h. […] The reaction rate was calculated using the […] time frame. […] IC50 values were calculated from a series of percent inhibition values determined at a range of inhibitor concentrations using software routines as implemented in the GraphPad Prism software package.

phosphorylated p-38-alpha kinase, sequence (Q16539 1-360 isoform Q16539-2): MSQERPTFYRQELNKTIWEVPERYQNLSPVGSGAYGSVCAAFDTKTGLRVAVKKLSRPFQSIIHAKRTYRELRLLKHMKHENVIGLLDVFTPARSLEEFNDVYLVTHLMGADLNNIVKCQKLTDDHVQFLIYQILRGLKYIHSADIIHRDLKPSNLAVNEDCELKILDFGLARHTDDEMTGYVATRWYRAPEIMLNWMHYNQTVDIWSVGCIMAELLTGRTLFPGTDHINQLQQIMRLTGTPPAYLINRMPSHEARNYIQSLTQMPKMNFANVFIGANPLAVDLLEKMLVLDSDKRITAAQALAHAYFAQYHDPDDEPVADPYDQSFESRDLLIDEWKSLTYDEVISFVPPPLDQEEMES
KDR kinase, sequence (P35968 with tags, fused parts or gaps DEL940-989/E990V): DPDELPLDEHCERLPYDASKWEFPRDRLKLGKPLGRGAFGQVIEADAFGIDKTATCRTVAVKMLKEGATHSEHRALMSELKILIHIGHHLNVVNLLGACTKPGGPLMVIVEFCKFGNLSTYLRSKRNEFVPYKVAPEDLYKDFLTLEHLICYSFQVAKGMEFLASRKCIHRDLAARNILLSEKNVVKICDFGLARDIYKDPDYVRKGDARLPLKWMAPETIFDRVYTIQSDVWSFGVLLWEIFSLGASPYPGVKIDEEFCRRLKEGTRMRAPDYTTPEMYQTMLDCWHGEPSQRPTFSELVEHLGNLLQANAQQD

Structure (SMILES)	IC50 [1]	IC50 [2]	IC50 [3]
CC(C)(C)c1cc(NC(=O)Nc2cccc(Cl)c2Cl)n(-c2cccc(CC(=O)N3CCCC(C(=O)O)C3)c2)n1 (stereo not drawn) [Example 398, 1-[2-(3-{3-t-butyl-5-[3-(2,3-dichlorophenyl)-ureido]-1H-pyrazol-1-yl}-phenyl)acetyl]piperidine-3-carboxylic acid]	0.026 µM	2.7 µM	0.012 µM
CC(C)(C)c1cc(NC(=O)Nc2cccc3ccccc23)n(-c2ccc3c(c2)CCC(=O)N3)n1 [Example 198, 1-(3-t-butyl-1-(2-oxo-1,2,3,4-tetrahydroquinolin-6-yl)-1H-pyrazol-5-yl)-3-(naphthalen-1-yl)urea]	0.059 µM	1.3 µM	–
COc1ccc(-n2nc(C(C)(C)C)cc2NC(=O)Nc2ccccc2F)cc1 [Example 237, 1-[3-t-butyl-1-(4-methoxyphenyl)-1H-pyrazol-5-yl]-3-(2-fluorophenyl)urea]	0.58 µM	4.9 µM	0.059 µM
CC(C)(C)c1cc(NC(=O)Nc2cccc(Cl)c2Cl)n(-c2cccc(CC(=O)N3CCS(=O)(=O)CC3)c2)n1 [Example 396, 1-(3-t-butyl-1-{3-[2-(1,1-dioxo-1[…]6-thiomorpholin-4-yl)-2-oxoethyl]phenyl}-1H-pyrazol-5-yl)-3-(2,3-dichlorophenyl)urea]	–	3.1 µM	0.032 µM
COc1cccc(-n2nc(C(C)(C)C)cc2NC(=O)Nc2cccc(Br)c2)c1 [Example 232, 1-(3-t-butyl-1-(3-methoxyphenyl)-1H-pyrazol-5-yl)-3-(3-bromophenyl)urea]	–	2.6 µM	0.038 µM
Cn1[nH]c(=O)n(Cc2cccc(-n3nc(C(C)(C)C)cc3NC(=O)Nc3cccc(Cl)c3Cl)c2)c1=O [Example 268, 1-{5-t-butyl-2-[3-(1-methyl-3,5-dioxo-[1,2,4]triazolidin-4-ylmethyl)-phenyl]-2H-pyrazol-3-yl}-3-(2,3-dichloro-phenyl)-urea]	–	2.6 µM	0.011 µM
CCOC(=O)C1CCN(C(=O)Cc2ccc(-n3nc(C(C)(C)C)cc3NC(=O)Nc3cccc(Cl)c3Cl)cc2)CC1 [Example 497]	–	1.2 µM	0.047 µM
CC(C)(C)c1cc(NC(=O)Nc2ccc(F)c(F)c2F)n(-c2ccc3[nH]c(=O)ccc3c2)n1 [Example 333, 1-(3-t-butyl-1-(2-oxo-1,2-dihydroquinolin-6-yl)-1H-pyrazol-5-yl)-3-(2,3,4-trifluorophenyl)urea]	–	0.23 µM	0.0034 µM
CC(C)(C)c1cc(NC(=O)Nc2cccc(F)c2F)n(-c2ccc(CC(=O)O)cc2)n1 [Example 382, 2-(4-(3-t-butyl-5-(3-(2,3-difluorophenyl)ureido)-1H-pyrazol-1-yl)phenyl)acetic acid]	–	10.3 µM	0.077 µM
CC(C(N)=O)c1cccc(-n2nc(C(C)(C)C)cc2NC(=O)Nc2cccc(Cl)c2Cl)c1 (stereo not drawn) [Example 249, 1-(1-(3-(1-amino-1oxopropan-2-yl)phenyl)-3-t-butyl-1H-pyrazol-5-yl)-3-(2,3-dichlorophenyl)urea]	0.011 µM	0.59 µM	0.0045 µM
CC(C)(C)c1cc(NC(=O)Nc2cccc(Cl)c2Cl)n(-c2cccc(Br)c2)n1 [Example 49, 1-(1-(3-bromophenyl)-3-t-butyl-1H-pyrazol-5-yl)-3-(2,3-dichlorophenyl)urea]	–	0.086 µM	0.0038 µM
CC(C)(C)c1cc(NC(=O)Nc2ccc(F)c(F)c2F)n(-c2cccc(C#N)c2)n1 [Example 210, 1-(3-t-butyl-1-(3-cyanophenyl)-1H-pyrazol-5-yl)-3-(2,3,4-trifluorophenyl)urea]	0.024 µM	0.11 µM	–
CCOC(=O)C1CCCN(C(=O)Cc2cccc(-n3nc(C(C)(C)C)cc3NC(=O)Nc3cccc(Cl)c3Cl)c2)C1 (stereo not drawn) [Example 397, ethyl 1-[2-(3-{3-t-butyl-5-[3-(2,3-dichlorophenyl)ureido]-1H-pyrazol-1-yl}phenyl)acetyl]piperidine-3-carboxylate]	–	3.4 µM	0.057 µM
CC(C)(C)c1cc(NC(=O)Nc2cccc(Cl)c2Cl)n(-c2cccc(CC(=O)N3CCC[C@@H]3C(=O)O)c2)n1 [Example 400, (2R)-1-[2-(3-{3-t-butyl-5-[3-(2,3-dichlorophenyl)ureido]-1H-pyrazol-1-yl}phenyl)acetyl]pyrrolidine-2-carboxylic acid]	0.046 µM	3.7 µM	0.019 µM
CC(C)(C)c1cc(NC(=O)Nc2ccc(F)c(F)c2)n(-c2cccc(C#N)c2)n1 [Example 206, 1-(3-t-butyl-1-(3-cyanophenyl)-1H-pyrazol-5-yl)-3-(3,4-difluorophenyl)urea]	–	0.48 µM	–
COc1ccc(-n2nc(C(C)(C)C)cc2NC(=O)Nc2cccc(Cl)c2)cc1 [Example 240, 1-[3-t-butyl-1-(4-methoxyphenyl)-1H-pyrazol-5-yl]-3-(3-chlorophenyl)urea]	0.47 µM	3.7 µM	0.05 µM
CC(C)(C)c1cc(NC(=O)Nc2cccc(F)c2F)n(-c2ccc(CCO)cc2)n1 [Example 262, 1-(3-t-butyl-1-(4-(2-hydroxyethyl)phenyl)-1H-pyrazol-5-yl)-3-(2,3-difluoro-phenyl)urea]	–	2.7 µM	0.034 µM

Structure (SMILES)	IC50 [1]	IC50 [2]	IC50 [3]
CC(C)(C)c1cc(NC(=O)Nc2cc(F)ccc2F)n(-c2cccc(C#N)c2)n1 [Example 213, 1-(3-t-butyl-1-(3-cyanophenyl)-1H-pyrazol-5-yl)-3-(2,5-difluorophenyl)urea]	0.067 µM	0.21 µM	0.012 µM
CC(C)(C)c1cc(NC(=O)Nc2cccc(Cl)c2Cl)n(-c2ccc(CC(=O)N3CCC(C(=O)O)CC3)cc2)n1 [Example 498, 1-[2-(4-{3-t-butyl-5-[3-(2,3-dichlorophenyl)ureido]-1H-pyrazol-1-yl}-phenyl)acetyl]piperidine-4-carboxylic acid]	0.009 µM	1.7 µM	0.052 µM
CC(C)(C)c1cc(NC(=O)Nc2ccc(Cl)cc2)n(-c2cccc(CN3C(=O)C(=O)NS3(=O)=O)c2)n1 [Example 225, 1-{5-t-butyl-2-[3-(1,1,3,4-tetraoxo-1λ^6-[1,2,5]thiadiazolidin-2-ylmethyl)phenyl]-2H-pyrazol-3-yl}-3-(4-chlorophenyl)urea]	–	9.6 µM	0.17 µM
CCOC(=O)C1CCN(C(=O)Cc2cccc(-n3nc(C(C)(C)C)cc3NC(=O)Nc3cccc(Cl)c3Cl)c2)CC1 [Example 344, ethyl 1-[2-(3-{3-t-butyl-5-[3-(2,3-dichlorophenyl)ureido]-1H-pyrazol-1-yl}phenyl)acetyl]piperidine-4-carboxylate]	–	2.7 µM	–
CC(C)(C)c1cc(NC(=O)Nc2cccc(Cl)c2Cl)n(-c2cccc(CC(=O)N3CCC(C(=O)O)CC3)c2)n1 [Example 345, 1-[2-(3-{3-t-butyl-5-[3-(2,3-dichlorophenyl)ureido]-1H-pyrazol-1-yl}phenyl)acetyl]piperidine-4-carboxylic acid]	0.019 µM	2.9 µM	–
CC(C)(C)c1cc(NC(=O)Nc2ccc(Cl)cc2)n(-c2cccc(CCO)c2)n1 [Example 342, 1-{3-t-butyl-1-[3-(2-hydroxyethyl)phenyl]-1H-pyrazol-5-yl}-3-(4-chlorophenyl)-urea]	–	5.7 µM	–
CC(C)(C)c1cc(NC(=O)N[C@H]2CCc3ccccc32)n(-c2ccc3c(c2)CCNC3)n1 [Example 199, 1-(3-t-butyl-1-(1,2,3,4-tetrahydroisoquinolin-6-yl)-1H-pyrazol-5-yl)-3-((S)-2,3-dihydro-1H-inden-1-yl)urea]	–	34.4 µM	–
CC(C)(C)c1cc(NC(=O)Nc2cccc3ccccc23)n(-c2cccc(CCO)c2)n1 [Example 341, 1-{3-t-butyl-1-[3-(2-hydroxyethyl)phenyl]-1H-pyrazol-5-yl}-3-(naphthalen-1-yl)urea]	0.027 µM	5.5 µM	–
CC(C)(C)c1cc(NC(=O)Nc2ccc(F)cc2F)n(-c2ccc3c(c2)CCN(S(C)(=O)=O)C3)n1 [Example 200, 1-(3-t-butyl-1-(2-(methylsulfonyl)-1,2,3,4-tetrahydroisoquinolin-6-yl)-1H-pyrazol-5-yl)-3-(2,4-difluorophenyl)urea]	–	2.7 µM	–
CC(C)(C)c1cc(NC(=O)Nc2cccc(F)c2F)n(-c2ccc3ncccc3c2)n1 [Example 283, 1-(3-t-butyl-1-(quinolin-6-yl)-1H-pyrazol-5-yl)-3-(2,3-difluorophenyl)urea]	–	0.44 µM	0.0064 µM
CC(C)(C)c1cc(NC(=O)Nc2ccccc2F)n(-c2cccc(CCC(=O)O)c2)n1 [Example 265, 3-(3-{3-t-butyl-5-[3-(2-fluorophenyl)ureido]-1H-pyrazol-1-yl}-phenyl)propionic acid]	–	9.8 µM	0.014 µM
COc1cccc(-n2nc(C(C)(C)C)cc2NC(=O)Nc2ccc([N+](=O)[O-])cc2)c1 [Example 338, 1-(3-t-butyl-1-(3-methoxyphenyl)-1H-pyrazol-5-yl)-3-(4-nitrophenyl)urea]	–	5 µM	–
CC(C)(C)c1cc(NC(=O)Nc2cccc(F)c2F)n(-c2ccc3c(c2)CCNC(=O)C3)n1 [Example 334, 1-(3-t-butyl-1-(2-oxo-2,3,4,5-tetrahydro-1H-benzo[d]azepin-7-yl)-1 H-pyrazol-5-yl)-3-(2,3-difluorophenyl)urea]	–	3.4 µM	0.011 µM
CC(C)(C)c1cc(NC(=O)Nc2cccc3ccccc23)n(-c2ccc3c(c2)CNCC3)n1 [Example 349]	0.03 µM	4.1 µM	–
CC(C)(C)c1cc(NC(=O)Nc2cc(F)cc(F)c2)n(-c2cccc(C#N)c2)n1 [Example 208, 1-(3-t-butyl-1-(3-cyanophenyl)-1H-pyrazol-5-yl)-3-(3,5-difluorophenyl)urea]	–	0.47 µM	–
CC(C)(C)c1cc(NC(=O)Nc2cc(F)c(F)cc2F)n(-c2ccc3[nH]c(=O)ccc3c2)n1 [Example 330]	–	0.39 µM	0.0032 µM
